# From patent publication US20230263900A1, “DENDRIMER-DRUG CONJUGATE” (priority 2020, published 2023)
# Like-named read-outs stand apart in the source and are kept apart here.
# What was measured:
# Solubility studies = format: physicochemical
# Experimental: The solubility of BHALys[Lys]2[Lys]4[Lys]8[Lys]16[Lys]32[(α-NH-3′ O-Glu-Remdesivir)32(ε-NH-COPEG2000)32] RHa-3 in water was determined to be ≥200 mg/mL (or ≥43.6 mg/mL Remdesivir RHa-1) by adding water (250 μL) to 50.0 mg of BHALys [Lys]2[Lys]4[Lys]8[Lys]16[Lys]32[(α-NH-3′ O-Glu-Remdesivir)32(ε-NH-COPEG2000)32] and swirling briefly. After 2 min, the resulting solution was visually inspected for particulates and found to be a clear solution (see FIG. 2). Solutions shown are 40 mg/ml Remdesivir equivalents (equivalent to 200 mg/ml of conjugate RHa-3).
# The solubility of BHALys[Lys]2[Lys]4[Lys]8[Lys]16[Lys]32[(α-NH-6N-TDA-Remdesivir)32(ε-NH-COPEG2000)32] RHa-5, in EtOH:Water (1:9 v/v) was determined to be ≥543 mg/mL (or ≥107 mg/mL Remdesivir RHa-1) by adding water EtOH:Water (1:9 v/v, 400 μL) to 380 mg of RHa-5. The mixture was swirled briefly and left to stand at rt. After 1.5 h the resulting solution (volume recorded=700 μL) was visually inspected for particulates and found to be a clear solution.
# The solubility of BHALys[Lys]2[Lys]4[Lys]8[Lys]16[Lys]32[(α-NH-6N-TDA-Remdesivir)32(ε-NH-COPEG1000)32] RHa-17 in EtOH:Water (1:9 v/v) was determined to be ≥354* mg/mL (or ≥85 mg/mL Remdesivir RHa-1) by adding EtOH:Water (1:9 v/v, 958 μL) portionwise to 525 mg of RHa-17, over a period of 1.5 h with intermittent swirling. The resulting solution was visually inspected for particulates and found to be a clear solution.
# (*Total volume not recorded. Assumes 1 mg construct contributes to 1 μL of final solution (i.e., total volume of final solution=1483 μL)).
# [1] = cited from earlier work
# Coronavirus infection = conditions: cited from earlier work
# [2] = Release of Remdesivir in PBS buffer (Release Method 1); format: physicochemical; conditions: PBS buffer with 10% v/v DMSO, pH 7.4, 37° C.
# Experimental: Release Method 1: An accurately weighed amount of the Remdesivir-dendrimer (10 mg) construct was dissolved in pH 7.4 PBS buffer:DMSO (9:1 v/v) and the volume made up to 20.0 mL in a volumetric flask to give a 0.5 mg/mL stock solution. The stock solution was aliquoted into several 2 mL screw-cap vials, the caps fitted and the vials heated at 37° C. The aliquoted solutions were analyzed at different time points by HPLC (HPLC Method 3). The concentration of Remdesivir RHa-1 was calculated by comparing the area under the peak associated with Remdesivir RHa-1 to a standard curve in MeCN:DMSO (9:1, v/v). The percentage of Remdesivir RHa-1 released is the percentage of available Remdesivir RHa-1 based on the loading of the construct as determined by ^1H NMR analysis (API Loading Method 1).
# The extent to which the Remdesivir RHa-1 was released over time in PBS buffer (with 10% v/v DMSO) (pH 7.4) at 37° C. was determined for 5 constructs, RHa-17, RHa-15, RHa-11, RHa-5 and RHa-3 (Release Method 1) over 120 hours.
# Trace amounts of other components were also observed (presumed to be degradation products of Remdesivir RHa-1). The area under the resolvable (separated) peaks associated with these degradants was also added to the peak area associated with released Remdesivir RHa-1.
# BHALys [Lys]2[Lys]4[Lys]8[Lys]16[Lys]32[(α-NH-6N-TDA-Remdesivir)32(ε-NH-COPEG2000)32] RHa-5 contained 1.77% free Remdesivir RHa-1 at t=0 min. The value of released Remdesivir RHa-1 shown in FIG. 3 has been adjusted to take this into account.
# [3] = Viscosity measurements (Viscosity Method 1); format: physicochemical; conditions: 50 mg/mL Remdesivir equivalents in EtOH: Water (1:9 v/v)
# Experimental: Viscosities were measured on Anton Paar ViscoQC300 Viscometer using CC-12 cup.
# Viscosity Method 1: A reference standard solution (Standard Type: RT500, CAS No. 63148-62-9, Paragon Scientific Ltd) was first recorded and found to be within the range of reported value (at 20° C.: found 556.6 cP, theoretical 551.0 cP; at 25° C.: found 503.3 cP, theoretical 498.6 cP). Accurately weighed quantities of respective conjugates were dissolved in EtOH:Water […] to make a 50 mg/mL Remdesivir equivalent solution (total volume 2.30-2.40 mL) and the viscosity of the solution was recorded at 20° C. and 25° C.
# Viscosities of 2 formulations containing either RHa-5 or RHa-17 in EtOH: Water (1:9 v/v) were measured using Viscosity Method 1
molecule,measurement,setting,value
"CCC(CC)COC(=O)[C@H](C)N[P@](=O)(OC[C@H]1O[C@@](C#N)(c2ccc3c(N)ncnn23)[C@H](O)[C@@H]1O)Oc1ccccc1 [RDV, 2-Ethylbutyl (2S)-2-{[(S)-{[(2R,3S,4R,5R)-5-(4-aminopyrrolo[2,1-f][1,2,4]triazin-7-yl)-5-cyano-3,4-dihydroxytetrahydrofuran-2-yl]methoxy}(phenoxy)phosphoryl]amino}propanoate]",Appearance in water at 40 mg/mL,"Solubility studies; water, 40 mg/mL, FIG. 2",suspension
same,Cmax,[1]; after 200 mg dose of Remdesivir,5440 ng/mL
same,Median terminal half-life,"[1]; human, in vivo",approximately 1 hours
same,Plasma half-life,"[1]; in vivo, iv",approximately 1 hour
same,"Clinical recovery, figure in parentheses (share of patients)","Coronavirus infection; 5-Day RDV, n = 200, Day 14",(65)
same,"Clinical recovery, patients","Coronavirus infection; 5-Day RDV, n = 200, Day 14",129
same,"Death, figure in parentheses (share of patients)","Coronavirus infection; 5-Day RDV, n = 200, Day 14",(8)
same,"Death, patients","Coronavirus infection; 5-Day RDV, n = 200, Day 14",16
same,"Discharge, figure in parentheses (share of patients)","Coronavirus infection; 5-Day RDV, n = 200, Day 14",(60)
same,"Discharge, patients","Coronavirus infection; 5-Day RDV, n = 200, Day 14",120
same,"≥ 2-point improvement in ordinal scale, figure in parentheses (share of patients)","Coronavirus infection; 5-Day RDV, n = 200, Day 14",(65)
same,"≥ 2-point improvement in ordinal scale, patients","Coronavirus infection; 5-Day RDV, n = 200, Day 14",129
same,"AE leading to discontinuation, figure in parentheses (share of patients)","Coronavirus infection; 5-Day RDV, n = 200",(5)
same,"AE leading to discontinuation, patients","Coronavirus infection; 5-Day RDV, n = 200",9
same,"Any adverse event (AE), figure in parentheses (share of patients)","Coronavirus infection; 5-Day RDV, n = 200",(71)
same,"Any adverse event (AE), patients","Coronavirus infection; 5-Day RDV, n = 200",141
same,"Grade ≥ 3 study drug-related AE, figure in parentheses (share of patients)","Coronavirus infection; 5-Day RDV, n = 200",(4)
same,"Grade ≥ 3 study drug-related AE, patients","Coronavirus infection; 5-Day RDV, n = 200",8
same,"Study drug-related serious adverse event (SAE), figure in parentheses (share of patients)","Coronavirus infection; 5-Day RDV, n = 200",(2)
same,"Study drug-related serious adverse event (SAE), patients","Coronavirus infection; 5-Day RDV, n = 200",3
same,Time to clinical improvement for 50% of patients,Coronavirus infection; 5-day treatment group,10 days
same,"Clinical recovery, figure in parentheses (share of patients)","Coronavirus infection; 10-Day RDV, n = 197, Day 14",(54)
same,"Clinical recovery, patients","Coronavirus infection; 10-Day RDV, n = 197, Day 14",106
same,"Death, figure in parentheses (share of patients)","Coronavirus infection; 10-Day RDV, n = 197, Day 14",(11)
same,"Death, patients","Coronavirus infection; 10-Day RDV, n = 197, Day 14",21
same,"Discharge, figure in parentheses (share of patients)","Coronavirus infection; 10-Day RDV, n = 197, Day 14",(52)
same,"Discharge, patients","Coronavirus infection; 10-Day RDV, n = 197, Day 14",103
same,"≥ 2-point improvement in ordinal scale, figure in parentheses (share of patients)","Coronavirus infection; 10-Day RDV, n = 197, Day 14",(54)
same,"≥ 2-point improvement in ordinal scale, patients","Coronavirus infection; 10-Day RDV, n = 197, Day 14",107
same,"AE leading to discontinuation, figure in parentheses (share of patients)","Coronavirus infection; 10-Day RDV, n = 197",(10)
same,"AE leading to discontinuation, patients","Coronavirus infection; 10-Day RDV, n = 197",20
same,"Any adverse event (AE), figure in parentheses (share of patients)","Coronavirus infection; 10-Day RDV, n = 197",(74)
same,"Any adverse event (AE), patients","Coronavirus infection; 10-Day RDV, n = 197",145
same,"Grade ≥ 3 study drug-related AE, figure in parentheses (share of patients)","Coronavirus infection; 10-Day RDV, n = 197",(5)
same,"Grade ≥ 3 study drug-related AE, patients","Coronavirus infection; 10-Day RDV, n = 197",10
same,"Study drug-related serious adverse event (SAE), figure in parentheses (share of patients)","Coronavirus infection; 10-Day RDV, n = 197",(2)
same,"Study drug-related serious adverse event (SAE), patients","Coronavirus infection; 10-Day RDV, n = 197",4
same,Time to clinical improvement for 50% of patients,Coronavirus infection; 10-day treatment group,11 days
BHALys[Lys]2[Lys]4[Lys]8[Lys]16[Lys]32[(α-NH-3′O-TDA-Remdesivir)32(ε-NH-COPEG2000)32] [RHa-15],Approx. Time taken for 50% Remdesivir release,[2],~9 h
BHALys[Lys]2[Lys]4[Lys]8[Lys]16[Lys]32[(α-NH-6N-TDA-Remdesivir)32(ε-NH-COPEG2000)32] [RHa-5],Solubility in EtOH:Water (1:9 v/v),"Solubility studies; EtOH:Water (1:9 v/v), conjugate mass, rt",≥ 543 mg/mL
same,"Solubility in EtOH:Water (1:9 v/v), as Remdesivir RHa-1","Solubility studies; EtOH:Water (1:9 v/v), expressed as Remdesivir RHa-1",≥ 107 mg/mL
same,Viscosity at 20° C.,[3],144.2 cP
same,Viscosity at 25° C.,[3],100.6 cP
same,Approx. Time taken for 50% Remdesivir release,[2],~58 h
